# In patent US20250114374A1, “BCL-2 INHIBITORS” (Newave Pharmaceutical Inc., priority 2021, published 2025):
# Read-outs that look alike come from different tables or passages of the source.
# Tested on: RS4; 11 with G101V mutation
# Assay: In vitro anti-proliferation assay (ATPlite luminescence) in BCL-2-dependent ALL cell line RS4;11 with G101V mutation
# Type: cell-based
# Conditions: read-out: RS411-G101V IC50
# Summary of the method: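 RS4;11 G101V cells at about 1×10^4 per well were exposed to a range of compound concentrations for about 72 h in medium with 10% FBS. Cellular ATP was measured by ATPlite luminescence after lysis, and IC50 was derived from the dose-response.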
# [1] = cellular anti-proliferative IC50, about 72 hours, medium with 10% FBS, ATPlite
SMILES,IC50 [1] [nM],"IC50 (Homo sapiens, RS4-11, 72 h) [nM]"
"COc1cc(CN2CCN([C@H]3CC4(CCN(c5ccc(C(=O)NS(=O)(=O)c6ccc(NCC7CCC(C)(O)CC7)c([N+](=O)[O-])c6)c(N6c7cc8cc[nH]c8nc7O[C@H]7COCC[C@@H]76)c5)CC4)[C@@H]3C)[C@H](c3ccccc3C)C2)cnc1N1CCOCC1 (stereo partly drawn) [Example 141, 2-[(3R,8S)-2,5-dioxa-9,15,17-triazatetracyclo[8.7.0.0^{3,8}.0^{12,16}]heptadeca-1(10),11,13,16-tetraen-9-yl]-4-[(1S,2S)-2-[(2R)-4-{[5-methoxy-6-(morpholin-4-yl)pyridin-3-yl]methyl}-2-(2-methylphenyl)piperazin-1-yl]-1-methyl-7-azaspiro[3.5]nonan-7-yl]-N-[3-nitro-4-({[(1r,4r)-4-hydroxy-4-methylcyclohexyl]methyl}amino)benzenesulfonyl]benzamide]",35.9,–
"COc1cc(CN2CCN(C3CC4(CCN(c5ccc(C(=O)NS(=O)(=O)c6cc7c(c([N+](=O)[O-])c6)N[C@@H](C6CCOCC6)CO7)c(N6c7cc8cc[nH]c8nc7O[C@H]7COCC[C@@H]76)c5)CC4)C3)[C@H](c3ccccc3C)C2)cnc1N1CCOCC1 [Example 142, 4-(2-((R)-4-((5-methoxy-6-morpholinopyridin-3-yl)methyl)-2-(o-tolyl)piperazin-1-yl)-7-azaspiro[3.5]nonan-7-yl)-N—(((S)-5-nitro-3-(tetrahydro-2H-pyran-4-yl)-3,4-dihydro-2H-benzo[b][1,4]oxazin-7-yl)sulfonyl)-2-((5aS,9aR)-6,7,9,9a-tetrahydro-1H-pyrano[3,4-b]pyrrolo[3′,2′:5,6]pyrido[3,2-e][1,4]oxazin-5(5aH)-yl)benzamide]",–,8
"COc1cc(CN2CCN(C3CC4(CCN(c5ccc(C(=O)NS(=O)(=O)c6cc7c(c([N+](=O)[O-])c6)N[C@H](C6CCOCC6)CO7)c(N6c7cc8cc[nH]c8nc7O[C@H]7COCC[C@@H]76)c5)CC4)C3)[C@H](c3ccccc3C)C2)cnc1N1CCOCC1 [Example 143, 4-(2-((R)-4-((5-methoxy-6-morpholinopyridin-3-yl)methyl)-2-(o-tolyl)piperazin-1-yl)-7-azaspiro[3.5]nonan-7-yl)-N-(((R)-5-nitro-3-(tetrahydro-2H-pyran-4-yl)-3,4-dihydro-2H-benzo[b][1,4]oxazin-7-yl)sulfonyl)-2-((5aS,9aR)-6,7,9,9a-tetrahydro-1H-pyrano[3,4-b]pyrrolo[3′,2′:5,6]pyrido[3,2-e][1,4]oxazin-5(5aH)-yl)benzamide]",–,7
"COc1cc(CN2CCN(C3CC4(CCN(c5ccc(C(=O)NS(=O)(=O)c6ccc(NCC7CCOCC7)c([N+](=O)[O-])c6)c(N6c7cc8cc[nH]c8nc7O[C@H]7COCC[C@@H]76)c5)CC4)C3)[C@@H](c3ccccc3OC(C)C)C2)cnc1N1CCOCC1 [Example 144, 4-(2-((S)-2-(2-isopropoxyphenyl)-4-((5-methoxy-6-morpholinopyridin-3-yl)methyl)piperazin-1-yl)-7-azaspiro[3.5]nonan-7-yl)-N-((3-nitro-4-(((tetrahydro-2H-pyran-4-yl)methyl)amino)phenyl)sulfonyl)-2-((5aS,9aR)-6,7,9,9a-tetrahydro-1H-pyrano[3,4-b]pyrrolo[3′,2′:5,6]pyrido[3,2-e][1,4]oxazin-5(5aH)-yl)benzamide]",–,7.3
"Cc1ccccc1[C@@H]1CN(Cc2cnc(N3CCOCC3)c(OC(C)C)c2)CCN1C1CC2(CCN(c3ccc(C(=O)NS(=O)(=O)c4ccc(NCC5CCC(C)(O)CC5)c([N+](=O)[O-])c4)c(N4c5cc6cc[nH]c6nc5O[C@H]5COCC[C@@H]54)c3)CC2)C1 (stereo partly drawn) [Example 145, 2-[(3R,8S)-2,5-dioxa-9,15,17-triazatetracyclo[8.7.0.0^{3,8}.0^{12,16}]heptadeca-1(10),11,13,16-tetraen-9-yl]-4-{2-[(2R)-4-{[5-isopropoxy-6-(morpholin-4-yl)pyridin-3-yl]methyl}-2-(2-methylphenyl)piperazin-1-yl]-7-azaspiro[3.5]nonan-7-yl}-N-[3-nitro-4-({[(1r,4r)-4-hydroxy-4-methylcyclohexyl]methyl}amino)benzenesulfonyl]benzamide]",6.1,–
"Cc1cc2c(CN3CCN(C4CC5(CCN(c6ccc(C(=O)NS(=O)(=O)c7ccc(NCC8CCC(C)(O)CC8)c([N+](=O)[O-])c7)c(N7c8cc9cc[nH]c9nc8O[C@H]8COCC[C@@H]87)c6)CC5)C4)[C@H](c4ccccc4C)C3)cnc(N3CCOCC3)c2o1 (stereo partly drawn) [Example 146, 2-[(3R,8S)-2,5-dioxa-9,15,17-triazatetracyclo[8.7.0.0^{3,8}.0^{12,16}]heptadeca-1(10),11,13,16-tetraen-9-yl]-4-{2-[(2R)-4-{[2-methyl-7-(morpholin-4-yl)furo[2,3-c]pyridin-4-yl]methyl}-2-(2-methylphenyl)piperazin-1-yl]-7-azaspiro[3.5]nonan-7-yl}-N-[3-nitro-4-({[(1r,4r)-4-hydroxy-4-methylcyclohexyl]methyl}amino)benzenesulfonyl]benzamide]",8.2,–
"Cc1cc2c(CN3CCN(C4CC5(CCN(c6ccc(C(=O)NS(=O)(=O)c7ccc(NCC8CCC(C)(O)CC8)c([N+](=O)[O-])c7)c(N7c8cc9cc[nH]c9nc8O[C@H]8COCC[C@@H]87)c6)CC5)C4)[C@@H](c4ccccc4OC(C)C)C3)cnc(N3CCOCC3)c2o1 (stereo partly drawn) [Example 147, 2-[(3R,8S)-2,5-dioxa-9,15,17-triazatetracyclo[8.7.0.0^{3,8}.0^{12,16}]heptadeca-1(10),11,13,16-tetraen-9-yl]-4-{2-[(2S)-2-(2-isopropoxyphenyl)-4-{[2-methyl-7-(morpholin-4-yl)furo[2,3-c]pyridin-4-yl]methyl}piperazin-1-yl]-7-azaspiro[3.5]nonan-7-yl}-N-[3-nitro-4-({[(1r,4r)-4-hydroxy-4-methylcyclohexyl]methyl}amino)benzenesulfonyl]benzamide]",31.9,–
"Cc1ccccc1[C@@H]1CN(Cc2ccnc3c2OCC(C)(C)O3)CCN1C1CC2(CCN(c3ccc(C(=O)NS(=O)(=O)c4ccc(NCC5CCC(C)(O)CC5)c([N+](=O)[O-])c4)c(N4c5cc6cc[nH]c6nc5O[C@H]5COCC[C@@H]54)c3)CC2)C1 (stereo partly drawn) [Example 148, 4-(2-((R)-4-((3,3-dimethyl-2,3-dihydro-[1,4]dioxino[2,3-b]pyridin-8-yl)methyl)-2-(o-tolyl)piperazin-1-yl)-7-azaspiro[3.5]nonan-7-yl)-N-((4-((((1r,4r)-4-hydroxy-4-methylcyclohexyl)methyl)amino)-3-nitrophenyl)sulfonyl)-2-((5aS,9aR)-6,7,9,9a-tetrahydro-1H-pyrano[3,4-b]pyrrolo[3′,2′:5,6]pyrido[3,2-e][1,4]oxazin-5(5aH)-yl)benzamide]",6.3,–
"COc1cc(CN2CCN(C3CC4(CCN(c5ccc(C(=O)NS(=O)(=O)c6ccc(NCC7CCC(C)(O)CC7)c([N+](=O)[O-])c6)c(N6c7cc8cc[nH]c8nc7O[C@H]7COCC[C@@H]76)c5)CC4)C3)[C@@H](c3ccccc3C)C2)cnc1OC (stereo partly drawn) [Example 149, 4-(2-((S)-4-((5,6-dimethoxypyridin-3-yl)methyl)-2-(o-tolyl)piperazin-1-yl)-7-azaspiro[3.5]nonan-7-yl)-N-((4-((((1r,4r)-4-hydroxy-4-methylcyclohexyl)methyl)amino)-3-nitrophenyl)sulfonyl)-2-((5aS,9aR)-6,7,9,9a-tetrahydro-1H-pyrano[3,4-b]pyrrolo[3′,2′:5,6]pyrido[3,2-e][1,4]oxazin-5(5aH)-yl)benzamide]",28.3,–
